In brackets after ≈: the same amount, converted by molar mass. Where two headings read alike, the source gives them in different places.
Key:
Type in all cases: cell-based
Cryptococcus neoformans = assay: Antifungal activity, paper disc zone of inhibition; conditions: 37° C., 2 days, agar, 8 mm paper disc, 2 mg/ml solution; for zone of inhibition at 2000 µg/mL: Cryptococcus neoformans, 48 h
Protocol: For the antifungal activity data given in Table 1, Cryptococcus neoformans is used as the test microorganism and incubated at 37° C. for 2 days in an agar medium with a paper disc (8 mm in diameter) immersed in an aqueous 2 mg/ml solution of a test compound and air-dried as placed on said medium, and the zone of inhibition is measured. The judgement criteria are as follows: "-" means less than 9 mm in inhibition zone diameter, "±" means 9-11 mm, "+" means 12-20 mm, and "++" means more than 20 mm.

[1] = tested on: human promyelocytic leukemia cells HL-60; assay: Growth inhibition (GD50) of human promyelocytic leukemia HL-60 cells
Tetrahymena pyriformis W = assay: Antiprotozoal activity, MIC by serial broth dilution technique; conditions: 28° C., 44-48 hours, tryptose peptone medium, pH 7.0; for MIC: Tetrahymena pyriformis
Leptosphaeria salvinii = assay: Antifungal activity, MIC by serial dilution in agar; conditions: Nakataea oryzae
Brewer's yeast = assay: as above
Cochliobolus miyabeanus = assay: as above; conditions: Bipolaris oryzae
Aspergillus = assay: as above; conditions: 1% glucose bouillon agar
Protocol: (§1) For the antifungal activity data shown in Table 2, various typical plant-disease-causing fungi are used as the test fungi and the minimum inhibitory concentration (MIC) are determined by the serial dilution technique using a 1% glucose bouillon agar medium.

Penicillium = assay: as above; conditions: 1% glucose bouillon agar
Protocol: as §1

Gibberella fujikuroi = assay: as above; conditions: Fusarium fujikuroi, 1% glucose bouillon agar
Protocol: as §1

Botrytis cinerea = assay: as above; conditions: 1% glucose bouillon agar
Protocol: as §1

Red yeast = assay: as above; conditions: 1% glucose bouillon agar
Protocol: as §1

Pyricularia oryzae = assay: microbe, parasite or virus in culture
[2] = tested on: Rauscher virus-induced promyelocytic leukemia cells R 453; assay: Growth inhibition (GD50) of Rauscher virus-induced leukemia R 453 cells; conditions: Mus musculus
[3] = tested on: mouse spontaneous myelolid leukemia M1 cells (resistant clone); assay: Growth inhibition (GD50) of mouse leukemia M1 cells
[4] = four successive population doublings of untreated cells, trypan blue, mean of four separate experiments

CCCCCCCCCCCCCCCCCCNC(=O)OCC(COP(=O)([O-])OCC[n+]1ccccc1)OC (stereo not drawn) [Example 12, 3-(N-n-Octadecylcarbamoyloxy)-2-methoxypropyl 2-pyridinioethyl phosphate]
zone of inhibition at 2000 µg/mL (Cryptococcus neoformans): 12 to 20 mm
IC50 [1, 4]: 1 µg/mL
MIC (Tetrahymena pyriformis W): 4 µg/mL

3-[8,11,14(Z,Z,Z)-Heptadecatrienylcarbamoyloxy]propyl 2-aminoethyl phosphate [Example 18]
Cryptococcus neoformans Zone of inhibition (Cryptococcus neoformans): + (12-20 mm)
Tetrahymena pyriformis W MIC (Tetrahymena pyriformis W): 2 to 4 µg/mL

CCCCC/C=C\C/C=C\CCCCCCCNC(=O)OCCCOP(=O)([O-])OCC[N+](C)(C)C [Example 20]
zone of inhibition at 2000 µg/mL (Cryptococcus neoformans): 12 to 20 mm
IC50 [1, 4]: 4.8 µg/mL (≈ 9.25 µM)
MIC (Tetrahymena pyriformis W): 2 µg/mL (≈ 3.86 µM)

CCCCCCCCCCCCCCCCCCNC(=O)OCC(COP(=O)([O-])OCC[N+](C)(C)C)OC (stereo not drawn) [Example 11, 3-(N-n-Octadecylcarbamoyloxy)-2-methoxypropyl 2-trimethylammonioethyl phosphate]
zone of inhibition at 2000 µg/mL (Cryptococcus neoformans): 12 to 20 mm
IC50 [1, 4]: 0.6 µg/mL
MIC (Tetrahymena pyriformis W): 2 to 4 µg/mL

CCCCCCCCCCCCCNC(=O)OCCCOP(=O)([O-])OCC[N+](C)(C)C [Example 23, 3-(N-Tridecylcarbamoyloxy)propyl 2-trimethylammonioethyl phosphate]
zone of inhibition at 2000 µg/mL (Cryptococcus neoformans): 12 to 20 mm
MIC (Leptosphaeria salvinii): 12.5 µg/mL
MIC (Brewer's yeast): 12.5 µg/mL
MIC (Cochliobolus miyabeanus): 12.5 µg/mL
MIC (Tetrahymena pyriformis W): ≤ 0.1 µg/mL
MIC (Aspergillus): 12.5 µg/mL
MIC (Penicillium): 12.5 µg/mL
MIC (Gibberella fujikuroi): 25 µg/mL
MIC (Botrytis cinerea): 6.25 µg/mL
MIC (Red yeast): 12.5 µg/mL
MIC (Pyricularia oryzae): 6.25 µg/mL

CCCCCCCCCCNC(=O)OCC(COP(=O)(O)OCCN)OC (stereo not drawn) [Example 28, 3-(N-Decylcarbamoyloxy)-2-methoxypropyl 2-aminoethyl phosphate]
zone of inhibition at 2000 µg/mL (Cryptococcus neoformans): < 9 mm
MIC (Tetrahymena pyriformis W): 2 µg/mL

CCCCC/C=C\C/C=C\CCCCCCCNC(=O)OCCOP(=O)([O-])OCC[N+](C)(C)C [Example 21, 2-[8,11(Z,Z)-Heptadecadienylcarbamoyloxy]ethyl 2-trimethylammonioethyl phosphate]
zone of inhibition at 2000 µg/mL (Cryptococcus neoformans): 9 to 11 mm
MIC (Tetrahymena pyriformis W): 2 µg/mL

CCCCCCCCCCCCCCNC(=O)OCC(COP(=O)(O)OCCN)OC (stereo not drawn) [Example 25, 3-(N-Tetradecylcarbamoyloxy)-2-methoxypropyl 2-aminoethyl phosphate]
zone of inhibition at 2000 µg/mL (Cryptococcus neoformans): > 20 mm
MIC (Leptosphaeria salvinii): 100 µg/mL
MIC (Brewer's yeast): 25 µg/mL
IC50 [1]: 2 to 3 µg/mL
MIC (Cochliobolus miyabeanus): > 100 µg/mL
MIC (Tetrahymena pyriformis W): ≤ 1 µg/mL
MIC (Aspergillus): 25 µg/mL
MIC (Penicillium): 25 µg/mL
MIC (Gibberella fujikuroi): 50 µg/mL
MIC (Botrytis cinerea): 6.25 µg/mL
MIC (Red yeast): 50 µg/mL
MIC (Pyricularia oryzae): 6.25 µg/mL

CCCCCCCCCCCCNC(=O)OCCCOP(=O)([O-])OCC[N+](C)(C)C [Example 31, 3-N-Dodecylcarbamoyloxypropyl 2-trimethylammonioethyl phosphate]
zone of inhibition at 2000 µg/mL (Cryptococcus neoformans): 12 to 20 mm
MIC (Leptosphaeria salvinii): 25 µg/mL
MIC (Brewer's yeast): 12.5 µg/mL
MIC (Cochliobolus miyabeanus): 12.5 µg/mL
MIC (Tetrahymena pyriformis W): ≤ 1 µg/mL
MIC (Aspergillus): 12.5 µg/mL
MIC (Penicillium): 12.5 µg/mL
MIC (Gibberella fujikuroi): 50 µg/mL
MIC (Botrytis cinerea): 12.5 µg/mL
MIC (Red yeast): 25 µg/mL
MIC (Pyricularia oryzae): 12.5 µg/mL

CCCCCCCCCCCCCCNC(=O)OCCCOP(=O)([O-])OCC[N+](C)(C)C [Example 36, 3-N-Tetradecylcarbamoyloxypropyl 2-trimethylammonioethyl phosphate]
zone of inhibition at 2000 µg/mL (Cryptococcus neoformans): > 20 mm
MIC (Leptosphaeria salvinii): 6.25 µg/mL
MIC (Brewer's yeast): 6.25 µg/mL
MIC (Cochliobolus miyabeanus): 25 µg/mL
MIC (Tetrahymena pyriformis W): ≤ 1 µg/mL
MIC (Aspergillus): 12.5 µg/mL
MIC (Penicillium): 12.5 µg/mL
MIC (Gibberella fujikuroi): 12.5 µg/mL
MIC (Botrytis cinerea): 12.5 µg/mL
MIC (Red yeast): 25 µg/mL
MIC (Pyricularia oryzae): 3.12 µg/mL

CCC=CCC=CCC=CCCCCCCCNC(=O)OCCCOP(=O)([O-])OCC[N+](C)(C)C [Example 17, 3-(N-8,11,14-Heptadecatrienylcarbamoyloxy)propyl 2-trimethylammonioethyl phosphate]
zone of inhibition at 2000 µg/mL (Cryptococcus neoformans): > 20 mm
MIC (Leptosphaeria salvinii): 50 µg/mL
MIC (Brewer's yeast): 100 µg/mL
IC50 [1, 4]: 2 µg/mL
MIC (Cochliobolus miyabeanus): 25 µg/mL
MIC (Tetrahymena pyriformis W): ≤ 1 µg/mL
MIC (Aspergillus): 50 µg/mL
MIC (Penicillium): 50 µg/mL
MIC (Gibberella fujikuroi): 50 µg/mL
MIC (Botrytis cinerea): 12.5 µg/mL
MIC (Red yeast): 100 µg/mL
MIC (Pyricularia oryzae): 25 µg/mL

CCCCCCCCCCCCNC(=O)OCCCOP(=O)(O)OCCN [Example 32]
zone of inhibition at 2000 µg/mL (Cryptococcus neoformans): 12 to 20 mm
MIC (Tetrahymena pyriformis W): ≤ 1 µg/mL

CCCCCCCCCCNC(=O)OCC(COP(=O)([O-])OCC[N+](C)(C)C)OC (stereo not drawn) [Example 29, 3-(N-Decylcarbamoyloxy)-2-methoxypropyl 2-trimethylammonioethyl phosphate]
zone of inhibition at 2000 µg/mL (Cryptococcus neoformans): 9 to 11 mm
MIC (Tetrahymena pyriformis W): 2 µg/mL

CCCCC/C=C\C/C=C\CCCCCCCNC(=O)OCCCOP(=O)(O)OCCN [Example 22, 3-[8,11(Z,Z)-Heptadecadienylcarbamoyloxy]propyl 2-aminoethyl phosphate]
zone of inhibition at 2000 µg/mL (Cryptococcus neoformans): 9 to 11 mm
IC50 [1, 4]: 4.3 µg/mL
MIC (Tetrahymena pyriformis W): ≤ 1 µg/mL

CCCCCCCCCCCCCCNC(=O)OCC(COP(=O)([O-])OCC[N+](C)(C)C)OC (stereo not drawn) [Example 26, 3-(N-Tetradecylcarbamoyloxy)-2-methoxypropyl 2-trimethylammonioethyl phosphate]
zone of inhibition at 2000 µg/mL (Cryptococcus neoformans): 12 to 20 mm
MIC (Leptosphaeria salvinii; Leptosphaeria salvinii, 1% glucose bouillon agar, read-out: MIC): 6.25 µg/mL
MIC (Brewer's yeast; Brewer's yeast, 1% glucose bouillon agar, read-out: MIC): 6.25 µg/mL
IC50 [1]: 2 to 3 µg/mL
MIC (Cochliobolus miyabeanus): 12.5 µg/mL
MIC (Tetrahymena pyriformis W): 0.2 µg/mL
MIC (Aspergillus): 12.5 µg/mL
MIC (Penicillium): 12.5 µg/mL
MIC (Gibberella fujikuroi): 12.5 µg/mL
MIC (Botrytis cinerea): 3.12 µg/mL
MIC (Red yeast): 25 µg/mL
MIC (Pyricularia oryzae): 3.12 µg/mL

COC1=C(OC)C(=O)C(CCCCCCCCCNC(=O)OCCCOP(=O)([O-])OCC[N+](C)(C)C)=C(C)C1=O [Example 8, 3-[N-(9-(2,3-Dimethoxy-6-methyl-1,4-benzoquinon-5-yl)nonyl)carbamoyloxy]propyl 2-trimethylammonioethyl phosphate]
MIC (Tetrahymena pyriformis W): 40 µg/mL

CCCCCCCCCCCCCCCCCCNC(=O)OCCOP(=O)([O-])OCC[N+](C)(C)C [Example 15, 2-(N-Octadecylcarbamoyloxy)ethyl 2-trimethylammonioethyl phosphate]
zone of inhibition at 2000 µg/mL (Cryptococcus neoformans): 12 to 20 mm
IC50 [1, 4]: 2.3 µg/mL
MIC (Tetrahymena pyriformis W): 1 to 2 µg/mL

CCCCCCCCCCCCCCCCCNC(=O)OCCCOP(=O)([O-])OCC[N+](C)(C)C [Example 4, 3-(N-n-Heptadecylcarbamoyloxy)propyl 2-trimethylammonioethyl phosphate]
zone of inhibition at 2000 µg/mL (Cryptococcus neoformans): 12 to 20 mm
MIC (Leptosphaeria salvinii): 50 µg/mL
IC50 [2]: 2 to 3 µg/mL
MIC (Brewer's yeast): > 100 µg/mL
IC50 [1]: 1 µg/mL
MIC (Cochliobolus miyabeanus): > 100 µg/mL
MIC (Tetrahymena pyriformis W): 1 to 2 µg/mL
MIC (Aspergillus): > 100 µg/mL
MIC (Penicillium): > 100 µg/mL
MIC (Gibberella fujikuroi): > 100 µg/mL
MIC (Botrytis cinerea): 12.5 µg/mL
MIC (Red yeast): > 100 µg/mL
MIC (Pyricularia oryzae): 6.25 µg/mL
IC50 [3]: 3 to 4 µg/mL

CCCCCCCCCCCCCCCCCCNC(=O)OCC(COP(=O)([O-])OCC[n+]1ccsc1)OC (stereo not drawn) [Example 13, 3-(N-n-Octadecylcarbamoyloxy)-2-methoxypropyl 2-thiazolioethyl phosphate]
zone of inhibition at 2000 µg/mL (Cryptococcus neoformans): 12 to 20 mm
MIC (Tetrahymena pyriformis W): 2 to 4 µg/mL
